In assay [1] the test system is HT-29. The assay is described as follows: Anticancer activity against human HT-29 cells xenografted in mouse model assessed as reduction in tumor volume relative to control. In kind it is functional. For orientation: In xenograft studies the graft and the host belong to different species.
Assay [2] has as its system HT-29. Description: Anticancer activity against human HT-29 cells xenografted in mouse model assessed as suppression of cancer cell growth relative to control. In kind it is functional.

For the molecule `O=C(CCCO[N+](=O)[O-])Oc1ccccc1C(=O)Oc1ccc(-c2cc(=S)ss2)cc1`, the “inhibition (INH)” value in the assay on HT-29 [1] is reported as 85%. Further, the “fold change (FC)” value in the assay on HT-29 [2] is 9000.
